# Measured values published in PMC3108608 (Frontiers in Pharmacology, 2011).
# pEC50, pIC50: −log10 of the molar value.
# Tests used:
# [1] = system: carrageenan-induced mouse paw edema; assay: Carrageenan-induced paw edema in mice; assay type: in vivo; settings: for ED50 paw edema formation: i.p., areas under the curves 2-6 h
# Protocol: Mice were divided into groups (n = 10 for each group) and lightly anesthetized with enflurane 4% mixed with O2, 0.5 l min^−1, N2O 0.5 l min^−1. Each group of animals received subplantar administration of saline (0.05 ml) or of λ-carrageenan type IV 1% (w v^−1, 0.05 ml) in saline. The paw was marked in order to immerge it always at the same extent in the measurement chamber. The volume was measured by using a hydroplethismometer, specially modified for small volumes (Ugo Basile, Milan, Italy), immediately before subplantar injection and 2, 4, and 6 h thereafter (Posadas et al., [2004]). The assessment of paw volume was performed always in double blind and by the same operator. The increase in paw volume was calculated by subtracting the initial paw volume (basal) to the paw volume measured at each time point.
# COX-1 = system: COX-1; parameters: method as in Albert et al., 2002; Feisst et al., 2009; settings: human platelets; ref Albert et al., 2002; Feisst et al., 2009; cited from earlier work
# [2] = system: carrageenan-induced pleurisy; assay: Carrageenan-induced pleurisy in rats; assay type: in vivo, rat; settings: 4 h after carrageenan; for PGE2 in exudate: vehicle 1.81 ± 0.16; for Inflammatory cells: vehicle 103.0 ± 15.4
# A549 cells = assay: cells; settings: Homo sapiens, A549, 24 h, read-out: EC50 of reduction of cell viability
# 5-lipoxygenase (5-LO) = target: 5-lipoxygenase (5-LO); parameters: method as in Albert et al., 2002; Feisst et al., 2009; settings: neutrophils; ref Albert et al., 2002; Feisst et al., 2009; read-out: IC50 of leukotriene biosynthesis; cited from earlier work
# COX-2 = system: COX-2; parameters: method as in Albert et al., 2002; Feisst et al., 2009; settings: monocytic Mono Mac 6 cells; ref Albert et al., 2002; Feisst et al., 2009; read-out: COX-2 activity (6-keto PGF1α synthesis), not affected up to; cited from earlier work
# COX-2 expression = assay: Induction of COX-2 in IL-1β-stimulated A549 cells (Western blot); assay type: cell-based; settings: Homo sapiens, 24 h, read-out: EC50 of inhibition of COX-2 induction
# Protocol: (§1) Cells (4 × 10^6 cells) were resuspended in 50 μl PBS buffer pH 7.2, mixed with the same volume of 2 × SDS/PAGE sample loading buffer (20 mM Tris–HCl, pH 8, 2 mM EDTA, 5% (m v^−1) SDS, and 10% (v v^−1) β-mercaptoethanol), and boiled for 5 min at 95°C. Aliquots (20 μl) corresponding to equivalents of 0.8 × 10^6 cells were mixed with 4 μl glycerol/0.1% bromophenol blue (1:1, v v^−1), and proteins were separated by SDS-PAGE. After electroblotting to nitrocellulose membrane (GE Healthcare, Munich, Germany) and blocking with 5% BSA for 1 h at room temperature, membranes were washed and incubated with primary antibodies overnight at 4°C. The membranes were washed and incubated with a 1:1000 dilution of alkaline phosphatase-conjugated immunoglobulin G for 3 h at room temperature. After washing, proteins were visualized with nitro blue tetrazolium and 5-bromo-4-chloro-3-indolylphosphate.
# (§2) Cells were harvested after 24 h, total cell lysates were prepared and analyzed for the induction of COX-2 (72 kDa), mPGES-1 (16 kDa) and cleaved PARP (89 kDa) using SDS-PAGE and Western blotting. β-Actin (45 kDa) was used as loading control. Data are representatives of two to three independent experiments.
# mPGES-1 expression = assay: Induction of mPGES-1 in IL-1β-stimulated A549 cells (Western blot); assay type: cell-based; settings: Homo sapiens, 24 h, read-out: EC50 of inhibition of mPGES-1 induction
# Protocol: as §1, §2
# [3] = system: A549 lung carcinoma cells; assay: Apoptosis of A549 cells monitored by cleavage of PARP; assay type: cell-based; settings: Homo sapiens, A549, 24 h
# Protocol: as §1, §2
# [4] = system: 6-keto PGF1α formation in LPS-stimulated human whole blood; assay: 6-keto PGF1α formation in LPS-stimulated human whole blood; assay type: cell-based; settings: MK-886 30 μM, MD-52 6 μM; LPS 5 h
# [5] = system: PGE2 formation in LPS-stimulated human whole blood; assay: PGE2 formation in LPS-stimulated human whole blood; assay type: cell-based; settings: controls: MK-886 30 μM, MD-52 6 μM, indomethacin 50 μM, celecoxib 20 μM; LPS 5 h
# [6] = system: TXB2 formation in LPS-stimulated human whole blood; assay: TXB2 formation in LPS-stimulated human whole blood; assay type: cell-based; settings: MK-886 30 μM, MD-52 6 μM; LPS 5 h
# mPGES-1 = target: T1, mPGES-1 (Homo sapiens, UniProt O14684); assay: PGE2 synthase activity in microsomes of IL-1β-stimulated A549 cells; assay type: biochemical; settings: for pIC50: 15 min pre-incubation at 4°C, 20 μM PGH2, 1 min, read-out: IC50 of PGE2 formation (mPGES-1 activity)
# T1 construct: microsomal preparations of IL-1β-stimulated A549 cells, a rich source of mPGES-1; endogenous in cells; host or cells: A549 cells, IL-1β-stimulated, microsomal fraction
# T1 sequence (O14684 1-152): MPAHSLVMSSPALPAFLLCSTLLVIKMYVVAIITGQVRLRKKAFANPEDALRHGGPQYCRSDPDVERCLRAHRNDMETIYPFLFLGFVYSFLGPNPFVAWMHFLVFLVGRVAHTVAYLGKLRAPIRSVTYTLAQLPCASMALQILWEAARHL
# [7] = system: 12-HHT formation (mainly derived from platelet COX-1) in human whole blood; assay: 12-HHT formation in human whole blood (A23187 plus AA); assay type: cell-based; settings: indomethacin 20 μM, aspirin 30 μM
# [8] = Hyp 4 mg kg^−1 i.p., indomethacin 5 mg kg^−1
# [9] = i.p. 30 min before, Hyperforin 4 mg kg^−1, Indomethacin 5 mg kg^−1
compound,measurement,setting,value
"CC(C)=CCCC1(C)C(CC=C(C)C)CC2(CC=C(C)C)C(=O)C1(C(=O)C(C)C)C(=O)C(CC=C(C)C)=C2O (centres unmarked) [Hyp, Hyperforin]",inhibition of edema formation from areas under the curves (2-6 h),[1]; 0.25 mg kg^−1 i.p.,27 % of control
same,reduction of peak paw edema response at 4 h,[1]; 0.25 mg kg^−1 i.p. 30 min before carrageenan,35%
same,inhibition of edema formation from areas under the curves (2-6 h),[1]; 1 mg kg^−1 i.p.,49 % of control
same,reduction of peak paw edema response at 4 h,[1]; 1 mg kg^−1 i.p. 30 min before carrageenan,63%
same,inhibition of edema formation from areas under the curves (2-6 h),[1]; 4 mg kg^−1 i.p.,76 % of control
same,reduction of peak paw edema response at 4 h,[1]; 4 mg kg^−1 i.p. 30 min before carrageenan,78%
same,ED50 paw edema formation,[1],1 mg/kg
same,pIC50,COX-1,5.52
same,attenuation of exudate formation,[2]; [8],64%
same,PGE2 in exudate,[2]; [9],0.97 ± 0.15 ng/rat
same,Inflammatory cells,[2]; [9],51.3 ± 7.2 ×10^6
same,pEC50,A549 cells,~5.52
same,pIC50,5-lipoxygenase (5-LO),5.70 to 6.00
same,pIC50,COX-2,< 4.52
same,pEC50,COX-2 expression,5.52 to 6.00
same,pEC50,mPGES-1 expression,5.52 to 6.00
same,pEC50,[3],~5.52
"Clc1ccccc1-c1nc2c3ccccc3c3ccccc3c2[nH]1 [MD-52, 2-(2-chlorophenyl)-1H-phenanthro[9,10-d]-imidazole]",effect on 6-keto PGF1α formation,[4],failed to suppress
same,effect on PGE2 formation,[5],only partially inhibited
same,effect on TXB2 formation,[6],failed to suppress
CC(C)c1ccc2c(c1)c(SC(C)(C)C)c(CC(C)(C)C(=O)O)n2Cc1ccc(Cl)cc1 [MK-886],effect on 6-keto PGF1α formation,[4],failed to suppress
same,effect on PGE2 formation,[5],only partially inhibited
same,effect on TXB2 formation,[6],failed to suppress
Cc1c(O)cc(O)c(C(=O)C(C)C)c1O [acylphloroglucinol core],pIC50,mPGES-1,< 5.00
CC(=O)Oc1ccccc1C(=O)O [aspirin],effect on 12-HHT formation,[7],almost completely blocked
Cc1ccc(-c2cc(C(F)(F)F)nn2-c2ccc(S(N)(=O)=O)cc2)cc1 [celecoxib],effect on PGE2 formation,[5],effectively reduced
CC(C)=CCC1C(=O)C(C(=O)CC(C)C)=C(O)C(O)(CC=C(C)C)C1=O (centres unmarked) [humulone],pIC50,mPGES-1,< 5.00
COc1ccc2c(c1)c(CC(=O)O)c(C)n2C(=O)c1ccc(Cl)cc1 [indomethacin],inhibition of edema formation from areas under the curves (2-6 h),[1]; 5 mg kg^−1 i.p.,52 % of control
same,reduction of peak paw edema response at 4 h,[1]; 5 mg kg^−1 i.p. 30 min before carrageenan,57%
same,ED50 paw edema formation,[1],5 mg/kg
same,attenuation of cell infiltration,[2]; [8],65%
same,attenuation of exudate formation,[2]; [8],75%
same,Exudate volume,"[2]; i.p. 30 min before, Hyperforin 4 mg kg^−1, Indomethacin 5 mg kg^−1, vehicle 0.44 ± 0.04",0.11 ± 0.04 mL
same,PGE2 in exudate,[2]; [9],0.19 ± 0.05 ng/rat
same,Inflammatory cells,[2]; [9],35.8 ± 4.2 ×10^6
same,effect on 12-HHT formation,[7],almost completely blocked
same,effect on PGE2 formation,[5],effectively reduced
CC(C)CCC[C@]1(C)[C@@H](CCC(C)C)C[C@@]2(CCC(C)C)C(=O)[C@]1(C(=O)C(C)C)C(=O)C(CCC(C)C)=C2O [octahydro-hyperforin],mPGES-1 inhibition compared with Hyp,mPGES-1; 20 μM PGH2,equally effective
